Where two headings read alike, the source gives them in different places.
Key:
[1] = target: T1, recombinant full-length WRN protein (1-1432) (Homo sapiens, UniProt Q14191); assay: WRN unwinding activity, fluorogenic 384-well assay (Example A); format: biochemical; conditions: WRN unwinding activity, 4 hr; Table 2; read-out: 4 hr UNW pIC50 (converted)
T1 construct: recombinant full-length WRN protein (1-1432)
Procedure, shortened: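 Read-out is end-point unwinding of a fluorophore/quencher duplex (ex 525, em 598 nm) after 60 min with 200 μM ATP and 12 nM DNA (2× stocks), EDTA stop. Compound first sat 4 h with 200 pM WRN (2× stock) in pH 8.0 Tris buffer; four-parameter fit gives pIC50.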

[2] = Cell culture media unbound percentage and stability by rapid equilibrium dialysis (Example C); format: in vitro ADME; conditions: bovine, cell assay medium (RPMI-1640 with 10% fetal bovine serum), pH 7.4, rapid equilibrium dialysis, 4 hours at 37° C., read-out: Cell Culture Media Binding (% unbound)
Procedure, shortened: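 Percent unbound in cell assay medium came from the LC-MS/MS receiver:donor peak area ratio, with stability taken as the 240 min over 0 min ratio. Set-up: 1 μM nominal compound in medium dialysed against pH 7.4 PBS (100 mM phosphate, 150 mM NaCl), 4 h, 37° C, shaken, in triplicate.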

[3] = system: SW48 human colorectal cancer cells; assay: Calculated free drug potency in SW48 cell assay, corrected with media free fraction (Example C); format: cell-based; conditions: Homo sapiens, SW48, SW48 pCC50 corrected with measured free fraction in cell assay media
Procedure, shortened: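 Free drug potency derives from correcting SW48 assay concentrations with the unbound fraction in medium. That fraction came from RED against pH 7.4 PBS, 1 μM nominal compound, 4 h at 37 °C, quantified by LC-MS/MS peak area ratios at T=240 versus T=0 min.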

[4] = system: SW48 human colorectal cancer cells (MSI-H cancer cells); assay: SW48 cell viability, CellTiter-Glo, 120 hours (Example B); conditions: Homo sapiens
[5] = SW48, 120 h, read-out: SW48 pCC50, SW48 cell viability, 120 hours incubation (converted), Table 2
[6] = SW48, read-out: SW48 pCC50, measured potency from Example B, as repeated in Table 3 (converted)

T1 sequence (Q14191 whole entry): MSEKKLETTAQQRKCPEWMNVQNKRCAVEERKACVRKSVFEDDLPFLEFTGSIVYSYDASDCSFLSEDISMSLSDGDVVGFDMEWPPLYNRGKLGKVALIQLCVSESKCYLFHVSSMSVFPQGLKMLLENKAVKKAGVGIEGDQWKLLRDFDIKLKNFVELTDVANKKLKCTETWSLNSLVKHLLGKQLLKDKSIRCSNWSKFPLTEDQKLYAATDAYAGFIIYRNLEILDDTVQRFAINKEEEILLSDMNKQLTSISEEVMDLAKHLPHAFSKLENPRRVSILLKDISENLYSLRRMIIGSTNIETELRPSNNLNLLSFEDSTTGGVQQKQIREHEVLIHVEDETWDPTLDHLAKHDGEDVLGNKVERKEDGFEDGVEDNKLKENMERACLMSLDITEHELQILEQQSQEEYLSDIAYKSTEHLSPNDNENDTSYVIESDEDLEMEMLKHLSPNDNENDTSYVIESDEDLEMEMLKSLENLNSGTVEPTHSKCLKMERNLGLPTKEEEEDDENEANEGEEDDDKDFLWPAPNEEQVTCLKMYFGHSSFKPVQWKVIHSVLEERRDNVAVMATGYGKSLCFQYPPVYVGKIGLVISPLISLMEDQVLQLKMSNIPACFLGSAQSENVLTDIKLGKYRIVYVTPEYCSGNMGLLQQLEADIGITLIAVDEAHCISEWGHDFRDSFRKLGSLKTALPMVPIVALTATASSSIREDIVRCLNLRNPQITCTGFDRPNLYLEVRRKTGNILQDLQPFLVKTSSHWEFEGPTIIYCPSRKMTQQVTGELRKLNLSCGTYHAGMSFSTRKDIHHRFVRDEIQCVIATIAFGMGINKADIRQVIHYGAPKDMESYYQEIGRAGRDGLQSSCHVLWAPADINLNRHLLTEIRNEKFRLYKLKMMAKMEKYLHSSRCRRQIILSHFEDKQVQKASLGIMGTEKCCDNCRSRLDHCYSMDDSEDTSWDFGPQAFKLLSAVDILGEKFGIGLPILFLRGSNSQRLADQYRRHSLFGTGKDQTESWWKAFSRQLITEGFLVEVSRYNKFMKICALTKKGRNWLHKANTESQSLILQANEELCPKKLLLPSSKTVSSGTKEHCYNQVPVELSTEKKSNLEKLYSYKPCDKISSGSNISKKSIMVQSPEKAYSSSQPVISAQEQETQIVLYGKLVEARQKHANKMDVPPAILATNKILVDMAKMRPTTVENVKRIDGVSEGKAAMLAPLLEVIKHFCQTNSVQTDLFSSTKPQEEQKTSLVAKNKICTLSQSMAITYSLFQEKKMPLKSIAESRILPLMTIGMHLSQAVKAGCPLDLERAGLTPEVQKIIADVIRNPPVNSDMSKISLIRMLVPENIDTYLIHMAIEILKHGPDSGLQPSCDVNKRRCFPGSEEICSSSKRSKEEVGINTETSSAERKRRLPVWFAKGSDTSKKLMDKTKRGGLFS

| SMILES | IC50 [1] [nM] | fraction unbound at 4 h, 1 µM [2] | CC50 [3] [nM] | CC50 [4, 5] [nM] | CC50 [4, 6] [nM] |
| --- | --- | --- | --- | --- | --- |
| Cc1nc2cc(S(=O)(=O)N(C)c3ccc([C@H]4CCC[C@@H](C(=O)N[C@H]5CC[C@H](C(F)(F)F)CC5)[C@@H]4C(=O)O)cc3)ccc2n1C [Example 177, (1R,2R,6S)-2-(((1r,4R)-4-(trifluoromethyl)cyclohexyl)carbamoyl)-6-(4-((N,1,2-trimethyl-1H-benzo[d]imidazole)-5-sulfonamido)phenyl)cyclohexane-1-carboxylic acid] | 1.58 | 0.237 | 372 | 1580 | 1580 |
| CN(c1ccc([C@H]2CCC[C@@H](C(=O)Nc3ccc(C(F)(F)F)cc3F)[C@@H]2C(=O)O)cc1)S(=O)(=O)c1cccc(C2CNC(=O)C2)c1 (stereo partly drawn) [Example 113, (1R,2R,6S)-2-((2-fluoro-4-(trifluoromethyl)phenyl)carbamoyl)-6-(4-((N-methyl-3-(5-oxopyrrolidin-3-yl)phenyl)sulfonamido)phenyl)cyclohexane-1-carboxylic acid] | 1.58 | 0.0899 | 56.2 | 631 | 631 |
| Cc1nc2cc(S(=O)(=O)N(C)c3ccc([C@H]4CC(F)(F)C[C@@H](C(=O)Nc5ccc(C(F)(F)F)cc5F)[C@@H]4C(=O)O)cc3)ccc2n1C (relative stereo) [Example 363, rel-(1R,2R,6S)-4,4-difluoro-2-((2-fluoro-4-(trifluoromethyl)phenyl)carbamoyl)-6-(4-((N,1,2-trimethyl-1H-benzo[d]imidazole)-5-sulfonamido)phenyl)cyclohexane-1-carboxylic acid] | 3.16 | 0.216 | 17 | 79.4 | 79.4 |
| COC12CC(CO[C@@H]3C[C@H](c4ccc(N(C)S(=O)(=O)c5ccc6c(c5)nc(C)n6C)cc4)[C@@H](C(=O)O)[C@H](C(=O)Nc4ccc(C(F)(F)F)cc4F)C3)(C1)C2 (relative stereo) [Example 332, rel-(1R,2R,4R,6S)-2-((2-fluoro-4-(trifluoromethyl)phenyl)carbamoyl)-4-((3-methoxybicyclo[1.1.1]pentan-1-yl)methoxy)-6-(4-((N,1,2-trimethyl-1H-benzo[d]imidazole)-5-sulfonamido)phenyl)cyclohexane-1-carboxylic acid] | 3.98 | 0.122 | 12.3 | 100 | 100 |
| Cc1nc2cc(S(=O)(=O)N(C)c3ccc([C@H]4C[C@H](N5CC[C@H](F)C5)C[C@@H](C(=O)Nc5ccc(C(F)(F)F)cc5F)[C@@H]4C(=O)O)cc3)ccc2n1C (stereo in doubt) [Example 380, rel-(1R*,2R*,4S*,6S*)-2-((2-fluoro-4-(trifluoromethyl)phenyl)carbamoyl)-4-((S)-3-fluoropyrrolidin-1-yl)-6-(4-((N,1,2-trimethyl-1H-benzo[d]imidazole)-5-sulfonamido)phenyl)cyclohexane-1-carboxylic acid] | 39.8 | 0.0334 | 331 | 10000 |  |
| CN(c1ccc([C@H]2CCC[C@@H](C(=O)Nc3ccc(C(F)(F)F)cc3F)[C@@H]2C(=O)O)cc1)S(=O)(=O)c1ccc2c(ccn2C)c1 [Example 107, (1R,2S,6R)-2-(4-((N, 1-dimethyl-1H-indole)-5-sulfonamido)phenyl)-6-((2-fluoro-4-(trifluoromethyl)phenyl)carbamoyl)cyclohexane-1-carboxylic acid] | 5.01 | 0.0245 | 19.5 | 794 | 794 |
| CN(c1ccc([C@H]2CCC[C@@H](C(=O)Nc3ccc(C(F)(F)F)cc3F)[C@@H]2C(=O)O)cc1)S(=O)(=O)c1ccc2c(c1)nc(C1CC1)n2C [Example 130, (1R,2S,6R)-2-(4-((2-cyclopropyl-N,1-dimethyl-1H-benzo[d]imidazole)-5-sulfonamido)phenyl)-6-((2-fluoro-4-(trifluoromethyl)phenyl)carbamoyl)cyclohexane-1-carboxylic acid] | 6.31 | 0.0326 | 16.2 | 501 | 501 |

Reference: patent US12662451B2, “Chemical compounds and uses thereof” (GLAXOSMITHKLINE INTELLECTUAL PROPERTY (NO.4) LIMITED, priority 2023, dated 2026)
